Assay results: ChEMBL document CHEMBL1201862, “PubChem BioAssay data set” (2004)
The source made the active and inactive calls.

Legend:
[1] = biological target: T1, Oxysterols receptor LXR-beta (Homo sapiens, UniProt P55055); format: functional, cell-based;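 further: Cell-based luminescence dose-response assay of agonist activity at LXR, run as a confirmatory counterscreen to a daf-12 agonist screen; agonist potency from rising luciferase signal of a Gal4-LXR reporter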
T1 sequence (P55055 whole entry): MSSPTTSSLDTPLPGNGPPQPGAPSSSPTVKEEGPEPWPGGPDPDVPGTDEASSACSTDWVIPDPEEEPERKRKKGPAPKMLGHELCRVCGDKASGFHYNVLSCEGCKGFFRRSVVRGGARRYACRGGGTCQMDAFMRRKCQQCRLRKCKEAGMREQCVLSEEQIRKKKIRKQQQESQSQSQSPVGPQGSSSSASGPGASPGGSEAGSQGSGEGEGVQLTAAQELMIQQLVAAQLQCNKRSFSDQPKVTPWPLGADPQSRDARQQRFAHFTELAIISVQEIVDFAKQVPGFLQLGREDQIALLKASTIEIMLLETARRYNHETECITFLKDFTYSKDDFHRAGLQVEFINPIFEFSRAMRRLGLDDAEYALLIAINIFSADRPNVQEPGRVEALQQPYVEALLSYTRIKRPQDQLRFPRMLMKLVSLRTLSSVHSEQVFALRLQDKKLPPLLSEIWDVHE

[2] = Luminescence-based cell-based high throughput dose response assay to identify activators of the DAF-12 from the parasite S. stercoralis (ssDAF-12).; format: functional
[3] = biological target: T1, Oxysterols receptor LXR-beta; test: LXR agonists, Gal4 luciferase reporter, dose response, counter-screen for ssDAF-12 agonist project, cell-based, luminescence, HEK293, S. stercoralis campaign (AID 720737); format: functional; settings: read-out: IC50 (the source's name)
Prothrombin = Prothrombin (Homo sapiens, UniProt P00734); test: Thrombin 1536 HTS Dose Response Confirmation. [Related pubchem assays: 1046 (Thrombin 1536 HTS; hits were confirmed in this assay)]; format: functional
[4] = off-target signal loss in HeLa-CEM21 co-culture – HeLa F-luc CTL cells, cherry-picked, counter-screen for HIV-1 Env fusion inhibitor project, dose response (AID 652040); format: functional, cell-based;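 further: potency for signal decrease marking cytotoxic or nonspecific inhibition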
[5] = biological target: T2, Replicative DNA helicase DnaB (Mycobacterium tuberculosis, UniProt P9WMR3); test: DnaB intein splicing inhibitors, dose response, biochemical, cell-free fluorescence (AID 449749); format: functional
T2 sequence (P9WMR3 whole entry): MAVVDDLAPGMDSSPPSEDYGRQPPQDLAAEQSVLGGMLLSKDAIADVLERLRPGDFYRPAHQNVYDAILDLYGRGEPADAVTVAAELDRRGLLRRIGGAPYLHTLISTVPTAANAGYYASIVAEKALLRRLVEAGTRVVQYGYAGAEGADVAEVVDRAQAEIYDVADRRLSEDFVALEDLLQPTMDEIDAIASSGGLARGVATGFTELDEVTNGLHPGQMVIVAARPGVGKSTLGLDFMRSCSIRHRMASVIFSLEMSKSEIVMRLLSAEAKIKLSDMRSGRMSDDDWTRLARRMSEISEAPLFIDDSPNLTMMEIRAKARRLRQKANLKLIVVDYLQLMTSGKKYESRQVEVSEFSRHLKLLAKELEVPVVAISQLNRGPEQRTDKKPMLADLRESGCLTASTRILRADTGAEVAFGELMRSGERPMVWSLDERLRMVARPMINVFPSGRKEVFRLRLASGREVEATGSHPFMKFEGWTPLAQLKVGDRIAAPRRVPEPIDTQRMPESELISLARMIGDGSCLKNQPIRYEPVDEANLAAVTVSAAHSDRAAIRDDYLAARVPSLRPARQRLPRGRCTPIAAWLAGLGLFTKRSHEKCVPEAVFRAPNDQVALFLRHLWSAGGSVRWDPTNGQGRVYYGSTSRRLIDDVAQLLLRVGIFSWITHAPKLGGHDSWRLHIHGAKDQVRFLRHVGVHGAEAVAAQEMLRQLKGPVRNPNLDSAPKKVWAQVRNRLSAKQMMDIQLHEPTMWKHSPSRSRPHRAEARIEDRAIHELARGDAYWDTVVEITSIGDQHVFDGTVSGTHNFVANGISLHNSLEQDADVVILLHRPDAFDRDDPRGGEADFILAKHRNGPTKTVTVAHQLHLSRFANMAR

[6] = CEM21 lymphoblast cell cytotoxicity, dose response, cytotoxicity control for viral fusion inhibitor project, CellTiter-Glo luminescence, cherry-picked (AID 652042); format: functional, cell-based;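 further: potency for signal decrease meaning cytotoxicity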
[7] = ZM109 Env clade C HIV-1 fusion inhibitors, dose response, HeLa effector, CEM target cells, luciferase, cherry-pick (AID 652058); format: functional, cell-based
[8] = inhibitors of HIV Env-driven cell fusion, dose response, cherry-pick (AID 652057); format: functional, cell-based
Protein RecA = biological target: T3, Protein RecA (Mycobacterium tuberculosis, UniProt P9WHJ3); test: Fluorescence Cell-Free Homogeneous Dose Retest to Identify Inhibitors of RecA-Intein Splicing Activity. [Related pubchem assays (depositor defined):AID2097, AID2223, AID489010, AID492950]; format: functional
T3 sequence (P9WHJ3 whole entry): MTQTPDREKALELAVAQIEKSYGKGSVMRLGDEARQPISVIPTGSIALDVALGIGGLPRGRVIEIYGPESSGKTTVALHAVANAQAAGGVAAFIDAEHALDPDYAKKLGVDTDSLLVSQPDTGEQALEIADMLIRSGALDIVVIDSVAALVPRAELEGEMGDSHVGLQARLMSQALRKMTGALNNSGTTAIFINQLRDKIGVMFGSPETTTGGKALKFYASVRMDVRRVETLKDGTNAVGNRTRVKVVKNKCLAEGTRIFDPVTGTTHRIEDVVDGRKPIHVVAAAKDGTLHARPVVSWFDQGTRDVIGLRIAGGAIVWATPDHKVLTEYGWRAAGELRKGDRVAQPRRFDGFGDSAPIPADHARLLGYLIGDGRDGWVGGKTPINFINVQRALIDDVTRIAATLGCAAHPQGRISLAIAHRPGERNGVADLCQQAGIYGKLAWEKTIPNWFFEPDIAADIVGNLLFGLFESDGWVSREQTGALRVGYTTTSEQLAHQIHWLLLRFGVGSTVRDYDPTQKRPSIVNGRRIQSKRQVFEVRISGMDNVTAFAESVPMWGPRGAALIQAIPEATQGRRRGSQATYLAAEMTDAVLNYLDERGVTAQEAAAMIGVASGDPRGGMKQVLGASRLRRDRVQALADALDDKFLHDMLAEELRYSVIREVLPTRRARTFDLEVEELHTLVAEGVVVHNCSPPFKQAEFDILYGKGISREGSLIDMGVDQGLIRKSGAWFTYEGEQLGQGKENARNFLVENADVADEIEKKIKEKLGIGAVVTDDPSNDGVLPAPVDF

[9] = inhibitors of clade B AD8 Env fusion, dose response, cell-based, cherry-pick (AID 652062); format: functional;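 further: luciferase signal from cell-cell fusion driven by HIV-1 clade B AD8 Env; potency is for inhibitors of fusion seen as a drop in luminescence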
[10] = HEp-2 cell cytotoxicity, dose response, cytotoxicity control for RSV inhibitor project, HTS (AID 2410); format: functional; settings: human respiratory syncytial virus
[11] = biological target: T4, Mannose-6-phosphate isomerase (Homo sapiens, UniProt P34949); test: human PMI inhibitors, high substrate, primary screen, biochemical, fluorescence intensity, high mannose 6-phosphate (AID 1220)
T4 sequence (P34949 whole entry): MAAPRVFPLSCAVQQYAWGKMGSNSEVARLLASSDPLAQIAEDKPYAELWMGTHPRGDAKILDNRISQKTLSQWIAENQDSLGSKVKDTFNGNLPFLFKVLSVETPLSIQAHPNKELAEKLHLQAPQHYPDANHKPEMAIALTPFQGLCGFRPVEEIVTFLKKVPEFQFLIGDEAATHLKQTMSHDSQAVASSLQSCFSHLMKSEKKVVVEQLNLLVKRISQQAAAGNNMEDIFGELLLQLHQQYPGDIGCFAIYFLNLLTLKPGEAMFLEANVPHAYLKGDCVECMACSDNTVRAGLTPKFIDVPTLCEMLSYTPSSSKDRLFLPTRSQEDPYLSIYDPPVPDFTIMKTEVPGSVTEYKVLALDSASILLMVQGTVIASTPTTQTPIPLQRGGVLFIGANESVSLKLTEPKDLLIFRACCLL

Caspase-6 = biological target: T5, Caspase-6 (Homo sapiens, UniProt P55212); test: human caspase-6 inhibitors, dose response, biochemical, VEID-R110 fluorescence, cherry-pick (AID 720632)
T5 sequence (P55212 whole entry): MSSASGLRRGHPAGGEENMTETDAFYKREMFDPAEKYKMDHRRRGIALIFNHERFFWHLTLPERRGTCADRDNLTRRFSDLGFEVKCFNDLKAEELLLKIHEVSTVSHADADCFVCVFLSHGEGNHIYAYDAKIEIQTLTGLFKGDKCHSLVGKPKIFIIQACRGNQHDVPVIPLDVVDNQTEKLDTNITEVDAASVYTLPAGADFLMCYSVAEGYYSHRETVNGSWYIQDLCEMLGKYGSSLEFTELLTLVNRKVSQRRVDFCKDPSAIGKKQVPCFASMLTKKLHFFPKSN

Cc1cccc2c(N=Nc3ccccc3)c(O)[nH]c12
EC50 [1]: > 67.5 µM (inactive) | EC50 (cells): > 67.5 µM (inactive) | IC50 [2]: > 67.5 µM (inactive) | EC50 [3]: > 67.5 µM (inactive)

CCOC(=O)c1sc(NC(=O)/C=C/c2cnn(C)c2C)c(C(=O)OCC)c1C
IC50 (Prothrombin): > 50 µM (not active)

Oc1nnc(Sc2ncnc3sccc23)n1CCc1ccccc1
AC50 [4]: 17.3 µM (active) | AC50 [5]: > 380 µM (inactive) | AC50 [6]: 27 µM (active) | AC50 [7]: 16.6 µM (active) | AC50 [8]: 7.58 µM (active) | EC50 (Protein RecA): 18 µM (active) | AC50 [9]: 18.1 µM (active) | CC50 [10]: 14.9 µM (active)

CCC1(CC)Cc2ccccc2C2=C(C(=O)N3CCCCC3)C(=O)C(=O)N21
IC50 [11]: > 50 µM (not active)

CC1CCCCC1NC(=O)COC(=O)c1ccc([N+](=O)[O-])o1 (stereo not given)
AC50 (Caspase-6): 43.8 µM (active)
